Source: patent publication US20120264685A1 (priority 2009, published 2012)
Where a SMILES comes first, the peptide text is derived from it. [ ]: non-standard residue; d: D form. ξ: configuration not given here. ξαMeBip(2'-Et,4'-OMe) = CCc1cc(OC)ccc1-c1ccc(CC(C)(N)C(=O)O)cc1; ξαMePhe(2,6-F2) = CC(N)(Cc1c(F)cccc1F)C(=O)O; ξhhPhe = NC(CCCc1ccccc1)C(=O)O; ξαMeP = CC1(C(=O)O)CCCN1; ξαMeS = CC(N)(CO)C(=O)O

Test system: male C57BL/6J mice
Experiment: Acute single dose 120-min time-course experiment, in vivo glucose reduction
Set-up: unit not given here
Conditions: n = 8, Mean ± SEM
Protocol: Acute single dose 120-min time-course experiments were carried out in male C57BL/6J or db/db mice, age 8-12 weeks, bred in-house. The animals were housed in groups of 6 animals per cage, for a week, in order to habituate them to vivarium conditions (25+4° C., 60-65% relative humidity, 12:12 h light: dark cycle, with lights on at 7.30 am). All the animal experiments were carried out according to the internationally valid guidelines following approval by the ‘Zydus Research Center animal ethical committee’.
[…] On the day of experiment, food was withdrawn from all the cages, water was given ad-libitum and were kept for overnight fasting. Vehicle (normal saline)/test/standard compounds were administered intraperitoneally (i.p.) or orally, on a body weight basis. Soon after the 0 min. blood collection from each animal, the subsequent blood collections were done at 30, 60 and 120 or upto 240 min., via retro-orbital route, under light ether anesthesia (Chen, D., et al., Diabetes Obesity Metabolism, 2005, 7, 307. Kim, J. G. et al., Diabetes, 2003, 52, 751).
The blood samples were centrifuged and the separated serum was immediately subjected for the glucose estimation. The serum for insulin estimation was stored at −70° C. until used for the insulin estimation. The glucose estimation was carried out with DPEC-GOD/POD method (Ranbaxy Fine Chemicals Limited, Diagnostic division, India), using Spectramax-190, in 96-microwell plate reader (Molecular devices Corporation, Sunnyvale, Calif.). […] The AUC and BCAUC obtained from graphs were analyzed for one way ANOVA, followed by Dunnett's post test, using Graph Pad prism software. Furthermore, the insulin estimation was carried out using rat/mouse insulin ELISA kit (Linco research, Missouri USA).

SMILES	blood glucose level (in vivo glucose reduction) (2 μM/kg, oral, 0 min)	blood glucose level (in vivo glucose reduction) (2 μM/kg, oral, 30 min)	blood glucose level (in vivo glucose reduction) (2 μM/kg, oral, 60 min)	blood glucose level (in vivo glucose reduction) (2 μM/kg, oral, 120 min)	also measured
CCc1cc(OC)ccc1-c1ccc(CC(NC(=O)C(C)(CC(=O)O)NC(=O)C(C)(CO)NC(=O)[C@@H](NC(=O)C(C)(Cc2ccccc2F)NC(=O)[C@@H](NC(=O)CNC(=O)[C@H](CCC(N)=O)NC(=O)C2(C)CCCN2C(=O)[C@H](Cc2c[nH]cn2)NC(=O)[C@@H](N)C(C)C)[C@@H](C)O)[C@@H](C)O)C(=O)NC(C)(CCCc2ccccc2)C(N)=O)cc1 (single isomer, unassigned) [Seq. ID. No. 118, VH-(αMe-Pro)-QGT-(αMe-2FPhe)-T-(αMe-Ser)-(αMe-Asp)-Bip(OMe)-(αMe-APPA)]	184 ± 2.5	115 ± 1.6	113 ± 3.2	110 ± 2.4	–
CCc1cc(OC)ccc1-c1ccc(CC(NC(=O)C(C)(CC(=O)O)NC(=O)C(C)(CO)NC(=O)[C@@H](NC(=O)C(C)(Cc2c(F)cccc2F)NC(=O)[C@@H](NC(=O)CNC(=O)[C@H](CCC(=O)O)NC(=O)C(C)(C)NC(=O)[C@H](Cc2c[nH]cn2)NC(=O)[C@@H](N)C(C)C)[C@@H](C)O)[C@@H](C)O)C(=O)NC(C)(CCCc2ccccc2)C(N)=O)cc1 (single isomer, unassigned) [Seq. ID. No. 129, VH-Aib-EGT-(αMe-2,6-diFPhe)-T-(αMe-Ser)-(αMe-Asp)-Bip(OMe)-(αMe-APPA)]	183 ± 2.4	116 ± 3.1	112 ± 4.8	110 ± 2.5	–
CCc1cc(OC)ccc1-c1ccc(CC(C)(NC(=O)[C@H](CC(=O)O)NC(=O)[C@H](CO)NC(=O)[C@@H](NC(=O)C(C)(Cc2ccccc2F)NC(=O)[C@@H](NC(=O)CNC(=O)[C@H](CCC(=O)O)NC(=O)[C@H](CO)NC(=O)[C@H](Cc2c[nH]cn2)NC(=O)[C@@H](N)C(C)C)[C@@H](C)O)[C@@H](C)O)C(=O)NC(C)(CCCc2ccccc2)C(N)=O)cc1 (single isomer, unassigned) [Seq. ID. No. 145, VHSEGT-(αMe-2FPhe)-TSD-(αMe-Bip(OMe))-(αMe-APPA)]	184 ± 2.2	118 ± 3.3	112 ± 4.4	110 ± 2.9	–
CCc1cc(OC)ccc1-c1ccc(CC(C)(NC(=O)[C@H](CC(=O)O)NC(=O)C(C)(CO)NC(=O)[C@@H](NC(=O)C(C)(Cc2ccccc2F)NC(=O)[C@@H](NC(=O)CNC(=O)[C@H](CCC(N)=O)NC(=O)[C@H](C)NC(=O)[C@H](Cc2c[nH]cn2)NC(=O)[C@@H](N)C(C)C)[C@@H](C)O)[C@@H](C)O)C(=O)NC(C)(CCCc2ccccc2)C(N)=O)cc1 (single isomer, unassigned) [Seq. ID. No. 166, VHAQGT-(αMe-2FPhe)-T-(αMe-Ser)-D-(αMe-Bip(OMe))-(αMe-APPA)]	–	–	–	–	blood glucose level (in vivo glucose reduction) (0.5 μM/kg, oral, 0 min): 184 ± 2.5; blood glucose level (in vivo glucose reduction) (0.5 μM/kg, oral, 30 min): 115 ± 3.6; blood glucose level (in vivo glucose reduction) (0.5 μM/kg, oral, 60 min): 113 ± 4.2; blood glucose level (in vivo glucose reduction) (0.5 μM/kg, oral, 120 min): 110 ± 2.4
CCc1cc(OC)ccc1-c1ccc(CC(C)(NC(=O)[C@H](CC(=O)O)NC(=O)C(C)(CO)NC(=O)[C@@H](NC(=O)C(C)(Cc2c(F)cccc2F)NC(=O)[C@@H](NC(=O)CNC(=O)[C@H](CCC(=O)O)NC(=O)[C@H](CO)NC(=O)[C@H](Cc2c[nH]cn2)NC(=O)[C@@H](N)C(C)C)[C@@H](C)O)[C@@H](C)O)C(=O)NC(C)(CCCc2ccccc2)C(N)=O)cc1 (single isomer, unassigned) [Seq. ID. No. 177, VHSEGT-(αMe-2,6-diFPhe)-T-(αMe-Ser)-D-(αMe-Bip(OMe))-(αMe-APPA)]	183 ± 2.4	116 ± 3.1	112 ± 4.8	110 ± 2.5	–
CCc1cc(OC)ccc1-c1ccc(CC(C)(NC(=O)[C@H](CC(=O)O)NC(=O)C(C)(CO)NC(=O)[C@@H](NC(=O)C(C)(Cc2c(F)cccc2F)NC(=O)[C@@H](NC(=O)CNC(=O)[C@H](CCC(=O)O)NC(=O)C(C)(C)NC(=O)[C@H](Cc2c[nH]cn2)NC(=O)[C@@H](N)C(C)C)[C@@H](C)O)[C@@H](C)O)C(=O)NC(C)(CCCc2ccccc2)C(N)=O)cc1 (single isomer, unassigned) [Seq. ID. No. 179, VH-Aib-EGT-(αMe-2,6-diFPhe)-T-(αMe-Ser)-D-(αMe-Bip(OMe))-(αMe-APPA)]	–	–	–	–	blood glucose level (in vivo glucose reduction) (20 nM/kg, i.p, 0 min): 182 ± 2.1; blood glucose level (in vivo glucose reduction) (20 nM/kg, i.p, 30 min): 121 ± 2.9; blood glucose level (in vivo glucose reduction) (20 nM/kg, i.p, 60 min): 130 ± 3.1; blood glucose level (in vivo glucose reduction) (20 nM/kg, i.p, 120 min): 138 ± 2.4
CCc1cc(OC)ccc1-c1ccc(CC(C)(NC(=O)C(C)(CC(=O)O)NC(=O)[C@H](CO)NC(=O)[C@@H](NC(=O)[C@H](Cc2ccccc2)NC(=O)[C@@H](NC(=O)CNC(=O)[C@H](CCC(=O)O)NC(=O)C(C)(C)NC(=O)[C@H](Cc2c[nH]cn2)NC(=O)[C@@H](N)C(C)C)[C@@H](C)O)[C@@H](C)O)C(=O)NC(C)(CCCc2ccccc2)C(N)=O)cc1 (single isomer, unassigned) [Seq. ID. No. 187, VH-Aib-EGTFTS-(αMe-Asp)-(αMe-Bip(OMe))-(αMe-APPA)]	183 ± 2.4	119 ± 3.1	112 ± 4.8	110 ± 2.5	–
CCc1cc(OC)ccc1-c1ccc(CC(C)(NC(=O)C(C)(CC(=O)O)NC(=O)[C@H](CO)NC(=O)[C@@H](NC(=O)C(C)(Cc2c(F)cccc2F)NC(=O)[C@@H](NC(=O)CNC(=O)[C@H](CCC(N)=O)NC(=O)C(C)(C)NC(=O)[C@H](Cc2c[nH]cn2)NC(=O)[C@@H](N)C(C)C)[C@@H](C)O)[C@@H](C)O)C(=O)NC(C)(CCCc2ccccc2)C(N)=O)cc1 (single isomer, unassigned) [Seq. ID. No. 199, VH-Aib-QGT-(αMe-2,6-diFPhe)-TS-(αMe-Asp)-(αMe-Bip(OMe))-(αMe-APPA)]	–	–	–	–	blood glucose level (in vivo glucose reduction) (30 nM/kg, i.p, 0 min): 180 ± 1.2; blood glucose level (in vivo glucose reduction) (30 nM/kg, i.p, 30 min): 116 ± 3.2; blood glucose level (in vivo glucose reduction) (30 nM/kg, i.p, 60 min): 116 ± 3.1; blood glucose level (in vivo glucose reduction) (30 nM/kg, i.p, 120 min): 118 ± 1.8
CCc1cc(OC)ccc1-c1ccc(CC(C)(NC(=O)[C@H](CC(=O)O)NC(=O)C(C)(CO)NC(=O)[C@@H](NC(=O)C(C)(Cc2c(F)cccc2F)NC(=O)[C@@H](NC(=O)CNC(=O)[C@H](CCC(=O)O)NC(=O)C2(C)CCCN2C(=O)[C@H](Cc2c[nH]cn2)NC(=O)[C@@H](N)C(C)C)[C@@H](C)O)[C@@H](C)O)C(=O)NC(CCCc2ccccc2)C(N)=O)cc1 (stereo partly drawn) [Seq. ID. No. 56, VH-(αMe-Pro)-EGT-(αMe-2,6-diFPhe)-T-(αMe-Ser)-D-(αMe-Bip(OMe))-(APPA)] (H-VH[ξαMeP]EGT[ξαMePhe(2,6-F2)]T[ξαMeS]D[ξαMeBip(2'-Et,4'-OMe)][ξhhPhe]-NH2)	–	–	–	–	blood glucose level (in vivo glucose reduction) (5 nM/kg, i.p, 0 min): 179 ± 5.0; blood glucose level (in vivo glucose reduction) (5 nM/kg, i.p, 30 min): 120 ± 3.6; blood glucose level (in vivo glucose reduction) (5 nM/kg, i.p, 60 min): 129 ± 2.0; blood glucose level (in vivo glucose reduction) (5 nM/kg, i.p, 120 min): 148 ± 1.7
